Measured values taken from patent publication US7910367B2, “Cell culture model and applications thereof” (L'Oreal, priority 2006, dated 2011).
No end group written: not given here.

Assays:
[1] = tested on: nerve cell-keratinocyte-melanocyte (N/K/M) multicellular model (melanogenesis); assay: Melanin amount in nerve cell-keratinocyte-melanocyte (N/K/M) multicellular model under noradrenergic stress; assay type: cell-based, human; details: for amount of melanin, +noradrenalin: 10^−5 M noradrenalin alone (Control) or with CGRP8-37 10^−6 M or Calmiskin 0.03%; for melanin synthesis by melanocytes (in words): multicellular model
Experimental: The experimental data were analyzed by means of the PRISM® software (graph pad software). The intergroup comparisons were carried out by analysis of variance (ANOVA) using Dunnett's multiple comparison test. The comparisons between two samples were carried out by analysis using the T test. They represent the mean of 4 independent experiments. They are expressed in μg of melanin/ml.

[2] = tested on: CGRP release by nerve cells; assay: Measurement of CGRP release in culture supernatants of the N/K/M model (ELISA); assay type: cell-based, rat
Experimental: At the end of the experiment described in Example 3, the supernatants from the wells and from the inserts were collected separately and immediately frozen at −80° C. in order to analyze the CGRP content. The CGRP content was measured in the culture supernatants by means of an ELISA assay (Rat CGRP enzyme Immuno Assay Kit, Spi Bio A05482) according to the protocol recommended by the supplier. The results are expressed in μg of CGRP/ml of medium. The analysis of the results was carried out as described above.

[3] = tested on: nerve cells of the N/K/M multicellular model; assay: Growth of nerve endings through the porous insert (anti-β-tubulin epifluorescence); assay type: cell-based; details: 10^−5 M noradrenalin, 10 days
Experimental: Using a multicellular model as obtained in Example 1, the cells were cultured in the absence or presence of 10^−5 M noradrenalin, for 10 days.
The N/K/M culture medium was deposited into the culture wells and into the inserts.
The various media were renewed 50/50 every day.
The nerve cells were labelled with an anti-β-tubulin monoclonal antibody (Sigma T8660) and then visualized with goat anti-mouse immunoglobulin antibody-Alexa fluor 488 conjugate (Interchim A-11029).
After thorough washing in PBS, the preparations were observed by epifluorescence (Nikon Diaphot 300 microscope) and photographed.
The photographs were taken below the insert (on the keratinocyte-neuron site).

[4] = 10 days, mean of 4 independent experiments

CGRP8-37: reference CGRP receptor antagonist (VTHRLAGLLSRSGGVVKNNFVPTNVGSKAF; ends and bridges not checked; UniProt P06881 90-119, looked up, fragment)
amount of melanin, +noradrenalin [1, 4]: 21.35 ± 0.91 μg of melanin/ml | amount of melanin, without noradrenalin ([1]; 10 days, no noradrenalin, CGRP8-37 10^−6 M, Calmiskin 0.03%, mean of 4 independent experiments): 19.33 ± 0.48 μg of melanin/ml | melanin synthesis by melanocytes (in words) [1]: considerable decrease in melanin synthesis | change in amount of melanin in the presence of noradrenalin ([1]; versus 10^−5 M noradrenalin alone, Calmiskin 0.03%, CGRP8-37 10^−6 M, 10 days): −17.2%

NC[C@H](O)c1ccc(O)c(O)c1 [noradrenalin]
CGRP release in the insert (in words) ([2]; insert supernatant, 10^−5 M noradrenalin, with or without 0.03% Calmiskin): very substantial | CGRP content, insert ([2]; supernatant of inserts (nerve cells), 10 days, 10^−5 M noradrenalin alone or with 0.03% Calmiskin): 493.86 ± 11.57 μg of CGRP/ml of medium | CGRP content, culture well ([2]; supernatant of wells (keratinocyte/melanocyte side), 10 days, 10^−5 M noradrenalin alone or with 0.03% Calmiskin): 170.48 ± 19.47 μg of CGRP/ml of medium | change in amount of melanin synthesized in the cocultures ([1]; 10^−5 M noradrenalin versus control without noradrenalin, 10 days): +15% | amount of melanin, +noradrenalin [1, 4]: 25.77 ± 0.72 μg of melanin/ml | melanin synthesis by melanocytes (in words) [1]: increase in melanin synthesis | density of the cell extensions (nerve endings crossing the insert) [3]: increased
